Legend:
[1] = target: T1, ALK2 R206H (GST-tagged mutant ALK2) (Homo sapiens, UniProt Q04771, R206H); experiment: ALK binding assay (LANTHASCREEN TR-FRET competitive binding, displacement of Kinase Tracer 178); conditions: ALK2 R206H, LANTHASCREEN TR-FRET competitive binding; read-out: Binding Assay (IC50)
T1 construct: purchased Carna Bioscience or ThermoFisher 09-148 or PV6232
T1 sequence (Q04771 21-509 R206H): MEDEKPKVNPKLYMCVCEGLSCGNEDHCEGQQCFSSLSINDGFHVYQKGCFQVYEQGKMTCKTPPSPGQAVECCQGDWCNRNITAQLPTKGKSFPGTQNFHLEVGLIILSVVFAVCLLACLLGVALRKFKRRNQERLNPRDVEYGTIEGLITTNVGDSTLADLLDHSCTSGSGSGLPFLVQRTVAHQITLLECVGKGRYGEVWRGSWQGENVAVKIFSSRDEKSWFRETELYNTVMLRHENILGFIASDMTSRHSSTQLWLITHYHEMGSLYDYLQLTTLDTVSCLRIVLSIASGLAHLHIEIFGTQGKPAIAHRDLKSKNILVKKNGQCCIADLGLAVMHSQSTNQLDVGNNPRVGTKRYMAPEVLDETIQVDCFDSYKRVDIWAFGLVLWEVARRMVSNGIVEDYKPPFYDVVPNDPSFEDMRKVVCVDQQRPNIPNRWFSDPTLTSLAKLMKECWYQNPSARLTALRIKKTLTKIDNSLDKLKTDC

[2] = target: T2, human ALK2 R206H (Homo sapiens, UniProt Q04771, R206H); experiment: Cell-based ALK2-R206H cell activity assay (Smad1-Ser463/Ser465 phosphorylation by AlphaLISA in HEK293-ALK2-R206H cells); conditions: read-out: Cell Line (Cell Assay IC50)
T2 construct: expressed in transfected cells; host or cells: HEK293 (ATCC CRL1573), lentivirus transduction, blasticidin selection
T2 sequence (Q04771 21-509 R206H): T1 sequence (Q04771 21-509 R206H)
How it was run: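 Stable HEK293 cells expressing C-terminally FLAG-tagged human ALK2 R206H (lentiviral, blasticidin-selected) were treated with compounds in 10-point, 3-fold dilutions from 10 μM or 1 μM top, in duplicate. Smad1 Ser463/Ser465 phosphorylation was read by AlphaLISA.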

IC50 [1] [nM] | IC50 [2] [nM] | Compound
< 10 | < 100 | CC(C)N1CCC(c2ccc(-c3cc4c(N5CCN(C(=O)[C@H]6CC[C@H](O)CC6)CC5)ccnn4c3)nc2)CC1 [Compound 432]
< 10 | < 100 | CC(C)N1CCC[C@@H](c2ccc(-c3cc4c(N5CCN(C(=O)[C@H]6CC[C@H](C#N)CC6)CC5)ccnn4c3)cc2)C1 [Compound 434]
< 10 | < 100 | CC(C)N1CCC[C@H](c2ccc(-c3cc4c(N5CCN(C(=O)[C@H]6CC[C@H](C#N)CC6)CC5)ccnn4c3)cc2)C1 [Compound 435]
< 10 | < 100 | CC(C)N1CCN(c2ccc(-c3cc4c(N5CCN(C(=O)[C@H]6CC[C@H](C#N)CC6)CC5)ccnn4c3)cc2)CC1 [Compound 436]
< 10 | < 100 | CC(C)N1CCC(c2ccc(-c3cc4c(N5CCN(C(=O)[C@H]6CC[C@H](C#N)CC6)CC5)ccnn4c3)nc2)CC1 [Compound 437]
< 10 | < 100 | CC(C)N1CC2(CN(c3ccc(-c4cc5c(N6CCN(C(=O)[C@H]7CC[C@H](O)CC7)CC6)ccnn5c4)cc3)C2)C1 [Compound 441]
< 10 | < 100 | CC(C)N1CC2(CN(c3ccc(-c4cc5c(N6CCN(C(=O)[C@H]7CC[C@H](C#N)CC7)CC6)ccnn5c4)cc3)C2)C1 [Compound 442]
< 10 | < 100 | CCN1CCC(c2ccc(-c3cc4c(N5CCN(C(=O)C6CC(O)(C(F)(F)F)C6)CC5)ccnn4c3)cc2)CC1 (centres unmarked) [Compound 445]
10 to 50 | > 500 | CCN1CCN(c2ccc(-c3cc4c(N5CCN(C(=O)C6(c7cccc(Cl)c7)CC6)CC5)ccnn4c3)cc2)CC1 [Compound 447]
< 10 | 100 to 500 | CCOC(=O)N1CCN(c2ccnn3cc(-c4cnc(N5CCN(C(C)C)CC5)cn4)cc23)CC1 [Compound 448, ethyl 4-(6-(5-(4-isopropylpiperazin-1-yl)pyrazin-2-yl)pyrrolo[1,2-b]pyridazin-4-yl)piperazine-1-carboxylate]
< 10 | < 100 | O=C(C1CC1)N1CCN(c2ccnn3cc(-c4ccc([C@H]5CCCN5)nc4)cc23)CC1 [Compound 451]
< 10 | < 100 | O=C(C1CC1)N1CCN(c2ccnn3cc(-c4ccc(C5CCCN5)cn4)cc23)CC1 (centres unmarked) [Compound 452]
< 10 | < 100 | O=C(C1CC1)N1CCN(c2ccnn3cc(-c4ccc(C5CCCN5)cn4)cc23)CC1 (centres unmarked) [Compound 453]
< 10 | 100 to 500 | O=C(C1CC1)N1CCN(c2ccnn3cc(-c4ccc(C5CCCN5)cn4)cc23)CC1 (centres unmarked) [Compound 454]
< 10 | < 100 | CC(N)(CO)c1ccc(-c2cc3c(N4CCN(C(=O)C5CC5)CC4)ccnn3c2)cc1 (centres unmarked) [Compound 455]
< 10 | 100 to 500 | CCNC(=O)N1CCN(c2ccnn3cc(-c4ccc([C@@H]5CCCN5)nc4)cc23)CC1 [Compound 456]
< 10 | 100 to 500 | CCNC(=O)N1CCN(c2ccnn3cc(-c4ccc([C@H]5CCCN5)nc4)cc23)CC1 [Compound 457]
< 10 | < 100 | C[C@]1(c2ccc(-c3cc4c(N5CCN(C(=O)C6CC6)CC5)ccnn4c3)cc2)CCCN1 [Compound 459]
< 10 | < 100 | C[C@@]1(c2ccc(-c3cc4c(N5CCN(C(=O)C6CC6)CC5)ccnn4c3)cc2)CCCN1 [Compound 460]
< 10 | 100 to 500 | N[C@@H]1CCN(c2ccc(-c3cc4c(N5CCN(C(=O)C6CC6)CC5)ccnn4c3)cc2)C1 [Compound 462]
< 10 | < 100 | CC1(c2ccc(-c3cc4c(N5CCN(C(=O)C6CC6)CC5)ccnn4c3)nc2)CCCN1 (centres unmarked) [Compound 463]

More lines, now with the values behind:

Compound | IC50 [1] [nM] | IC50 [2] [nM]
CCN1CCN(CCOc2ccc(-c3cc4c(N5CCN(C(=O)C6CC6)CC5)ccnn4c3)cc2)CC1 [Compound 390, cyclopropyl(4-(6-(4-(2-(4-ethylpiperazin-1-yl)ethoxy)phenyl)pyrrolo[1,2-b]pyridazin-4-yl)piperazin-1-yl)methanone] | 10 to 50 | 100 to 500
CCN1CCN(c2ccc(-c3cc4c(N5CCN(C(=O)C6CC(C)(O)C6)CC5)ccnn4c3)cc2)CC1 (centres unmarked) [Compound 391] | < 10 | < 100
CC[C@H](C)NC(=O)N1CCN(c2ccnn3cc(-c4ccc(C5CCN(C(C)C)CC5)cc4)cc23)CC1 [Compound 393] | < 10 | 100 to 500
CCNC(=O)N1CCN(c2ccnn3cc(-c4ccc(C5(OC)CCN(C(C)C)CC5)cc4)cc23)CC1 [Compound 399] | < 10 | < 100
CCNC(=O)N1CCN(c2ccnn3cc(-c4ccc(C5(OC)CCCN(C(C)C)C5)cc4)cc23)CC1 (centres unmarked) [Compound 400] | < 10 | < 100
COCCOC(=O)N1CCN(c2ccnn3cc(-c4ccc(C5CCN(C(C)C)CC5)cc4)cc23)CC1 [Compound 401] | < 10 | 100 to 500
CCN1CCN(c2ccc(-c3cc4c(N5CCN(C(=O)C6CC(F)(F)C6)CC5)ccnn4c3)cc2)CC1 [Compound 402] | < 10 | 100 to 500
CCN1CC2(C1)CN(c1ccc(-c3cc4c(N5CCN(C(=O)N6CC(C#N)C6)CC5)ccnn4c3)cc1)C2 [Compound 404] | < 10 | 100 to 500
CC(C)N1CC(c2ccc(-c3cc4c(N5CCN(C(=O)[C@H]6CC[C@H](C#N)CC6)CC5)ccnn4c3)cc2)C1 [Compound 406] | < 10 | < 100
CC(C)N1CCC(c2ccc(-c3cc4c(N5CCN(C(=O)[C@H]6C[C@@H]6C#N)[C@H](C)C5)ccnn4c3)cc2)CC1 [Compound 407] | < 10 | < 100
CC(C)N1CCC[C@@H](c2ccc(-c3cc4c(N5CCN(C(=O)[C@H]6C[C@H](C#N)C6)CC5)ccnn4c3)cc2)C1 [Compound 408] | < 10 | < 100
CC(C)N1CCC[C@H](c2ccc(-c3cc4c(N5CCN(C(=O)[C@H]6C[C@H](C#N)C6)CC5)ccnn4c3)cc2)C1 [Compound 409] | < 10 | < 100
CC(C)N1CCCC(c2ccc(-c3cc4c(N5CCN(C(=O)N6CC(C#N)C6)CC5)ccnn4c3)cc2)C1 (centres unmarked) [Compound 411] | < 10 | 100 to 500
CCN1CCC(c2ccc(-c3cc4c(N5CCN(C(=O)N6CC(C#N)C6)[C@H](C)C5)ccnn4c3)cc2)CC1 [Compound 412] | < 10 | < 100
CC(C)N1CCN(c2ccc(-c3cc4c(N5CCN(C(=O)[C@H]6C[C@H](C#N)C6)CC5)ccnn4c3)cc2)CC1 [Compound 413] | < 10 | < 100
CCN1CCC(c2ccc(-c3cc4c(N5CCN(C(=O)C6CCC(C)CC6)CC5)ccnn4c3)cc2)CC1 (centres unmarked) [Compound 415] | < 10 | < 100
CC(C)N1CC[C@H](c2ccc(-c3cc4c(N5CCN(C(=O)[C@H]6CC[C@H](O)CC6)CC5)ccnn4c3)cc2)C1 [Compound 418] | < 10 | < 100
CC(C)N1CC[C@@H](c2ccc(-c3cc4c(N5CCN(C(=O)[C@H]6CC[C@H](O)CC6)CC5)ccnn4c3)cc2)C1 [Compound 419] | < 10 | < 100
CC(C)N1CCC(c2ccc(-c3cc4c(N5CCN(C(=O)[C@H]6C[C@](C)(O)C6)CC5)ccnn4c3)cc2)CC1 [Compound 420] | < 10 | < 100
CC(C)N1CCC(c2ccc(-c3cc4c(N5CCN(C(=O)[C@H]6C[C@@](C)(O)C6)CC5)ccnn4c3)cc2)CC1 [Compound 421] | < 10 | < 100
CCN1CCN(c2ccc(-c3cc4c(N5CCN(C(=O)[C@H]6CC[C@H](O)CC6)CC5)ccnn4c3)cc2)CC1 [Compound 422] | < 10 | < 100
CCN1CCC(c2ccc(-c3cc4c(N5CCN(C(=O)N6CCC(O)CC6)CC5)ccnn4c3)cc2)CC1 [Compound 423] | < 10 | 100 to 500
CC(C)N1CC2(CN(c3ccc(-c4cc5c(N6CCN(C(=O)[C@H]7C[C@H](C#N)C7)CC6)ccnn5c4)cc3)C2)C1 [Compound 426] | < 10 | < 100
CCN1CCN(c2ccc(-c3cc4c(N5CCN(C(=O)C6CC6)CC5)ccnn4c3)c(OC(F)F)c2)CC1 [Compound 427] | < 10 | 100 to 500
CCN1CCC(c2ccc(-c3cc4c(N5CCN(C(=O)N6CCC(C#N)CC6)CC5)ccnn4c3)cc2)CC1 [Compound 428] | < 10 | 100 to 500
CCN1CCN(c2ccc(-c3cc4c(N5CCN(C(=O)[C@H]6CC[C@H](C#N)CC6)CC5)ccnn4c3)cc2)CC1 [Compound 429] | < 10 | < 100
CC(C)N1CCC(c2ccc(-c3cc4c(N5CCN(C(=O)OCC(F)(F)F)CC5)ccnn4c3)cc2)CC1 [Compound 430] | < 10 | < 100
CCN1CCC(c2ccc(-c3cc4c(N5CCN(C(=O)C6CCC(C)(O)CC6)CC5)ccnn4c3)cc2)CC1 (centres unmarked) [Compound 431] | < 10 | 100 to 500
